The text below walks through data of ChEMBL document CHEMBL4033679, “Medicinal chemistry of antischistosomal drugs: Praziquantel and oxamniquine” (Bioorg Med Chem, 2017).

Data set [1] has as its system Schistosoma japonicum. Kind of data set: Antiparasitic activity against Schistosoma japonicum cercariae isolate Anhui infected in ICR mouse assessed as overall reduction rate at 100 to 400 mg/kg, po administered as single dose for 5 consecutive days measured on day 21 post dose by scanning electron microscopic method. Type of data set: functional. Details: scale not given: the % may be the effect or the level left.

The nature of data set [2]: Cytotoxicity against human HeLa cells assessed as cell survival at 40 uM after 24 hrs by MTT assay relative to control. Format: cell-based. The conditions noted are these: read-out: Survival.
The subject of data set [3] is Schistosoma japonicum. Kind of data set: Antiparasitic activity against Schistosoma japonicum derived from infected C57BL/6 mouse assessed as parasite killing at 10 uM incubated for 30 to 60 mins measured up to 72 hrs by inverted microscopic method relative to control. Type of data set: functional.
Data set [4] is described as follows: Elimination half life in human at 15 mg/kg, po. Format: ADME, organism-based. The conditions noted are these: in vivo, read-out: beta t1/2.
Data set [5] is described as follows: Cmax in human at 15 mg/kg, po. Type of data set: ADME, organism-based. The arrangement: dose 15 mg/kg, route oral. The settings on record: in vivo.
Data set [6] is described as follows: Drug excretion in human urine at 15 mg/kg, po. The settings on record: read-out: Drug excretion. Type of data set: ADME, organism-based.
Data set [7] relates to Schistosoma mansoni. The data set can be described thus: Antiparasitic activity against Schistosoma mansoni in patient assessed as cure rate by measuring reduction in eggs in stool at 10 mg/kg/day bid measured up to day 180 post dose relative to control. Format: functional. The arrangement: scale not given: the % may be the effect or the level left.
The subject of data set [8] is Schistosoma mansoni. The data set can be described thus: Antiparasitic activity against Schistosoma mansoni in patient assessed as reduction in eggs per gram of rectal mucosa at 10 mg/kg/day bid measured up to day 180 post dose relative to control. Format: functional. Details: scale not given: the % may be the effect or the level left.
The test system of data set [9] is Schistosoma mansoni. Kind of data set: In vivo antiparasitic activity against Schistosoma mansoni assessed as cure rate at 40 to 60 mg/kg relative to control. Format: functional.
Data set [10] concerns Schistosoma mansoni. The data set can be described thus: In vivo antiparasitic activity against Schistosoma mansoni assessed as reduction in egg count in […] at 40 to 60 mg/kg relative to control. Type of data set: functional. The arrangement: scale not given: the % may be the effect or the level left.
Data set [11] in a line: Apparent permeability in human Caco2 cells. The settings on record: Caco-2. Type of data set: ADME, cell-based.
A short description of data set [12]: Cmax in human after 1 to 2 hrs. Format: ADME.
Data set [13] deals with Plasma. The data set can be described thus: Drug level in human plasma after 1 to 2 hrs. Format: ADME, cell-free.
Data set [14] in a line: Half life in human. Format: ADME.
The nature of data set [15]: Fraction absorbed in po dosed human. Type of data set: ADME, organism-based. The conditions noted are these: in vivo, read-out: Fabs.
A short description of data set [16]: Fraction absorbed in po dosed rat. The settings on record: in vivo, read-out: Fabs. Format: ADME, organism-based.
The nature of data set [17]: Fraction absorbed in po dosed dog. Format: ADME, organism-based, Canis lupus familiaris. The conditions noted are these: in vivo, read-out: Fabs.
Data set [18] in a line: Fraction absorbed in po dosed monkey. Format: ADME, organism-based, Macaca mulatta. The conditions noted are these: rhesus monkey, in vivo, read-out: Fabs.
Data set [19] in a line: Tmax in human. Type of data set: ADME.
Data set [20] concerns the target albumin (Homo sapiens, UniProt P02768). Kind of data set: Binding affinity to albumin (unknown origin). Format: ADME. The settings on record: read-out: PB.
Data set [21] in a line: Antiparasitic activity against Schistosoma in intestinal schistosomiasis patient assessed as cure rate at 40 mg/kg. Type of data set: functional.
A short description of data set [22]: Protein binding in plasma (unknown origin) relative to control. The settings on record: read-out: PPB. Format: ADME, cell-free.
Data set [23] in a line: Drug excretion in human urine up to 4 days. The conditions noted are these: read-out: Drug excretion. Type of data set: ADME.
A short description of data set [24]: Protein binding in plasma (unknown origin). Type of data set: ADME, cell-free.
The test system of data set [25] is Schistosoma mansoni. Kind of data set: Antiparasitic activity against Schistosoma mansoni in patient assessed as cure rate by measuring reduction in eggs in stool at 60 mg/kg/day for 3 consecutive days measured up to day 180 post dose relative to control. Format: functional. Details: scale not given: the % may be the effect or the level left.
In data set [26] the test system is Schistosoma mansoni. Kind of data set: Antiparasitic activity against Schistosoma mansoni in patient assessed as reduction in eggs per gram of rectal mucosa at 60 mg/kg/day for 3 consecutive days measured up to day 180 post dose relative to control. Format: functional. Details: scale not given: the % may be the effect or the level left.

SMILES strings stand for the structures.

Sequence of albumin (P02768 whole entry): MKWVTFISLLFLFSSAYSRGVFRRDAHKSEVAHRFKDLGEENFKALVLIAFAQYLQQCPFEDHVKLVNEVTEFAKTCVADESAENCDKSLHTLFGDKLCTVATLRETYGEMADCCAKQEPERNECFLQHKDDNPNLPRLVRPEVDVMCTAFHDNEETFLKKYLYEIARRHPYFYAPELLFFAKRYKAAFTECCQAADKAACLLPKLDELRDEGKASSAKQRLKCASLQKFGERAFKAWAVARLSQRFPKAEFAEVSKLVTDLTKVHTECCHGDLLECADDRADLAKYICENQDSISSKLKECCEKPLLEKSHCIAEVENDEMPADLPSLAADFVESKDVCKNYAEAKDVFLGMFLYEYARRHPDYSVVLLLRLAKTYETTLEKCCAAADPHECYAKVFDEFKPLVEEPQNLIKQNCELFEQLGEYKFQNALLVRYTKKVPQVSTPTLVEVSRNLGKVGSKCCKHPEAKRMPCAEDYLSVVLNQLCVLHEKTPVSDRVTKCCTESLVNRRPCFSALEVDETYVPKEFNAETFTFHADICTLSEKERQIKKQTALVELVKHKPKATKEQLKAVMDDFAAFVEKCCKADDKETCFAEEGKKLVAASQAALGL

Regarding `C[C@H]1[C@@H](OC(=O)CCC(=O)Oc2ccc3c(c2)C2CN(C(=O)C4CCCCC4)CC(=O)N2CC3)O[C@@H]2O[C@@]3(C)CC[C@H]4[C@H](C)CC[C@@H]1[C@@]24OO3` (stereo partly drawn), in data set [1], the Activity came to 60%.

On to `O=C(C1CCCCC1)N1CC(=O)N2CCc3ccc([N+](=O)[O-])cc3C2C1` (stereo not drawn), for which, in [2], the viability at 24 h, 40 µM was above 85%.

Consider `Nc1ccc2c(c1)C1CN(C(=O)C3CCCCC3)CC(=O)N1CC2` (stereo not drawn), for which, in data set [2], the viability at 24 h, 40 µM is above 85%.

`O=C(CCCCCN1C(=O)c2cccc3c(C4CCOCC4)ccc(c23)C1=O)Nc1ccc2c(c1)C1CN(C(=O)C3CCCCC3)CC(=O)N1CC2` (stereo not drawn): the viability at 24 h, 40 µM in data set [2] is above 85%.

As to `O=C(CCl)N1CC(=O)N2CCc3sccc3C2C1` (stereo not drawn), the Activity in data set [3] is given as 100%.

Regarding `CC(C)NCC1CCc2cc(CO)c([N+](=O)[O-])cc2N1` (stereo not drawn) [OXAMNIQUINE], in data set [4], the half-life was 1.5 to 2 h. In data set [5], the Cmax lay within 1000 to 4000 ng/mL. For the same compound, the dose excreted in [6] was in the range of 0.4 to 1.9%. Moreover, the Activity amounted to 90.3% in data set [7] and 42.4% in [8].

For `O=C(C1CCCCC1)N1CC(=O)N2CCc3ccccc3C2C1` (stereo not drawn) [PRAZIQUANTEL], the Activity in data set [9] was 60 - 90%; in data set [10], 90 - 95%; in data set [21], 18 - 39%; in data set [25], 100%; in data set [26], 96.1%. For the same compound, the Papp in [11] was 44 ×10⁻⁶ cm/s. In [12], the concentration peaked (Cmax) at 1000 ng/mL. In data set [13], this compound showed a Drug uptake of 5 to 7 %ID. Besides, the half-life in [14] was 1.5 h. For the same compound, the Fa in data set [15], in data set [16], in data set [17] and in [18] was 75 to 100% in each case. For the same compound, the Tmax in [19] lay in the range of 3 to 4 h. Further, the fraction unbound in [20] lay within 0.19 to 0.22; in data set [22], 0.195 to 0.21. In addition, in data set [23], the dose excreted at 96 h amounted to 80%. The same compound displayed a PPB in [24] of 0.19 to 3 mg/mL.
